From US12172990B2 (Constellation Pharmaceuticals, Inc., priority 2018, dated 2024)

Columns and labels:
[1] = molecular target: full length human TREX1 (Homo sapiens (Human), UniProt Q9NSU2); assay: TREX1 Biochemical Assay (fluorescence assay measuring degradation of dsDNA substrate); conditions: 150 pM TREX1, 60 nM dsDNA substrate, 25 minutes at room temperature
In short: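 His-Tev-tagged full-length human TREX1 expressed in E. coli, 150 pM final, with 60 nM TEX615/quencher-labelled 9-mer dsDNA in Tris pH 7.4, NaCl, DTT, BSA, Tween-20, MgCl2 and 1.0% DMSO; 25 min at room temperature, EDTA-quenched. Fluorescence 615 nm (excitation 570 nm); 10-point IC50 by four-parameter fit against pre-quenched and no-inhibitor controls.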

[2] = molecular target: human TREX2 (residues M44-A279) (Homo sapiens (Human), UniProt Q9BQ50); assay: TREX2 Biochemical Assay (fluorescence assay measuring degradation of dsDNA substrate); conditions: 2.5 nM TREX2, 60 nM dsDNA substrate, 25 minutes at room temperature
Chain of human TREX2 (residues M44-A279) (Q9BQ50 whole entry, the tested form may be a part): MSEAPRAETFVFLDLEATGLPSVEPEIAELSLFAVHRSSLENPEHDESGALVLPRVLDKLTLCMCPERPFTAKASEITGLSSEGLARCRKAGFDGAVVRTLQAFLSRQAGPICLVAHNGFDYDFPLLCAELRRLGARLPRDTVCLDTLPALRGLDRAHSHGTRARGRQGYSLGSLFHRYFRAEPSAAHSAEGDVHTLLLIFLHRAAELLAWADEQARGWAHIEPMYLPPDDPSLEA
In short: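 Final conditions: 2.5 nM His-Tev-tagged TREX2 (E. coli-expressed), 60 nM fluorophore/quencher-labelled dsDNA, 50 mM Tris pH 7.4, 150 mM NaCl, 100 mM MgCl2, 1% DMSO; 10-point compound dose-response. Incubated 25 min at room temperature, then EDTA-quenched; fluorescence read at ex 570/em 615 nm. IC50 from four-parameter fit against pre-quenched and no-inhibitor controls.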

Chain of full length human TREX1 (Q9NSU2 whole entry): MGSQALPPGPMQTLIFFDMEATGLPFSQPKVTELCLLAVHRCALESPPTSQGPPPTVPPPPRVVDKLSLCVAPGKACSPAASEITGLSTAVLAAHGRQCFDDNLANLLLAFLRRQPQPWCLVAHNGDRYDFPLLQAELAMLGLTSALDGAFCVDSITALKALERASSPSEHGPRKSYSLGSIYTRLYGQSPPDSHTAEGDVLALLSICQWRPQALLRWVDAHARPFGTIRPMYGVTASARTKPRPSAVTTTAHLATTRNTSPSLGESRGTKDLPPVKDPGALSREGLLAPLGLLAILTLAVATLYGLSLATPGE

Compound | IC50 [1] [µM] | IC50 [2] [µM]
Cn1c(-c2ccccc2NCCCO)nc(C(=O)Nc2cnoc2)c(O)c1=O [Example 75, 5-hydroxy-2-(2-((3-hydroxypropyl)amino)phenyl)-N-(isoxazol-4-yl)-1-methyl-6-oxo-1,6-dihydropyrimidine-4-carboxamide] | > 10 | > 100
Cn1c(N2CCN(c3ccccn3)C[C@@H]2c2ccccc2Cl)nc(C(=O)Nc2cnoc2)c(O)c1=O [Example 125, (S)-2-(2-(2-chlorophenyl)-4-(pyridin-2-yl)piperazin-1-yl)-5-hydroxy-N-(isoxazol-4-yl)-1-methyl-6-oxo-1,6-dihydropyrimidine-4-carboxamide] | < 0.1 | < 1
Cn1c(C2CCCN(CCc3ccccc3)C2)nc(C(=O)Nc2cnoc2)c(O)c1=O (stereo not shown) [Example 129, 5-hydroxy-N-(isoxazol-4-yl)-1-methyl-6-oxo-2-(1-phenethylpiperidin-3-yl)-1,6-dihydropyrimidine-4-carboxamide] | > 10 | > 100
Cn1c(N2CC(OCc3ccccc3)C2)nc(C(=O)Nc2cnoc2)c(O)c1=O [Example 123, 2-(3-(benzyloxy)azetidin-1-yl)-5-hydroxy-N-(isoxazol-4-yl)-1-methyl-6-oxo-1,6-dihydropyrimidine-4-carboxamide] | 0.1 to 1 | 10 to 100
Cn1c(N2CCCCC2)nc(C(=O)Nc2cnoc2)c(O)c1=O [Example 28, 5-hydroxy-N-(isoxazol-4-yl)-1-methyl-6-oxo-2-(piperidin-1-yl)-1,6-dihydropyrimidine-4-carboxamide] | 0.1 to 1 | 10 to 100
